# Results from patent US10537541B2, “Treatment of focal segmental glomerular sclerosis (FSGS) using therapeutically effective oral doses of 10-nitro-9(E)-octadec-9-enoic acid” (Complexa, Inc., priority 2015, dated 2020).
# “Also recorded” adds a separate entry of the source.
# Experiments:
# [1] = system: deoxycorticosterone acetate (DOCA)/salt-induced model of FSGS; assay: DOCA salt study: histological assessment of kidney; assay type: in vivo, mice (129/sv strain); conditions: DOCA/salt mice, 4 weeks
# Procedure: Induction of model: Male mice (129/sv strain) were purchased from Taconic Labs. The animals were uninephrectomized (Unx) at 6 weeks of age by the vendor and shipped one week after surgery. At 2 weeks post Unx, a DOCA or placebo pellet (21-day release pellets, 50 mg/pellet, Innovative Research of America, Sarasota, Fla.) was implanted s.c. All mice were then placed on a semisynthetic diet which contained a moderate fat content and a low phytoestrogen/anti-oxidant level, which approximates a normal human diet (4). A second DOCA or placebo pellet was implanted three weeks later.
# Treatment: Mice were treated with placebo, 10-nitro-9(E)-octadec-9-enoic acid at a dose of 2.5 and 12.5 mg/kg, or enalapril (standard of care) for 4 weeks by oral gavage starting 2 weeks after the first DOCA implantation. One percent NaCl in tap water was given to each group except the sham control group. Body weight was measured weekly, and doses were readjusted based on the current body weight. Urine and blood samples were collected prior to treatment and at week 2 and 4 of treatment. Mice were terminated at week 4. Data is presented as the mean+SEM for the number of animals listed in each group.
# Histological Assessment: Formalin fixed, paraffin embedded kidneys were sectioned at 3 microns and stained with hematoxylin and eosin (H&E), periodic acid-Schiff (PAS) and Masson's Trichrome for histological analysis. Slides were blindly evaluated by an experienced pathology investigator. Glomerular and tubular pathology, interstitial inflammation and interstitial fibrosis were semi-quantitatively scored on a scale of 0-4 as follows: 0=normal; 1=mild; 2=moderate; 3=marked; 4=severe.
# Glomerular hypertrophy was evaluated by measuring glomerular area and expressed as a mean value of 50 glomeruli per kidney. Glomerular hypertrophy is an important marker for diabetic and hypertensive-mediated chronic kidney disease. […] This finding is consistent with unchanged gene expression profile for podocyte markers (Table 2), and seems reasonable given that the disease was relatively modest.
# obese male subjects = assay: Multiple ascending dose study in obese males: serum biomarkers (leptin, MCP-1, IL-6, triglycerides, cholesterol); assay type: in vivo, human
# Source text: Biomarker characterization included the following laboratory parameters: serum leptin, FBG, total cholesterol, HDL and LDL, triglycerides, HR, PR, QRS interval and T-wave morphology measured on ECGs extracted from cardiac Holter monitoring, measurements of serum RBP4, CRP, PAI-1, measurements of serum cytokines: IL-6, TNFα, MCP-1, measurements of the following biomarkers in whole blood by quantitative reverse transcriptase polymerase chain reaction (qRT-PCR) including: HO-1, NQ01, GCLM, HSP70 (HSP1A HSP1B, HSPA6), HSP22 (HSPB8) and HPS40 (DNAJA4), urine RBP4, MCP-1 and KIM-1, urinary exosomes by qRT-PCR including: HO-1, NQ01, GCLM, HSP70 (HSP1A HSP1B, HSPA6), HSP22 (HSPB8) and HPS40 (DNAJA4), gene and protein expression analyses by DNAseq, RNAseq, and western blots in PBMCs and ratio of EETs to DHETs in serum and urine.
# This was a single-center, randomized, double-blind, placebo-controlled study of sequential multiple ascending doses of oral CXA-10 in obese male subjects. Eligible subjects included obese males age 19 to 57 years and BMI 27.0 to 39.5 kg/m^2. CXA-10 and placebo were provided as solutions in hard shell capsules. Three (3) cohorts of subjects were dosed once daily with CXA-10 for 14 days. The doses administered in this study were 25, 150 and 450 mg. Subjects enrolled in the highest dose level (450 mg) were administered 600 mg on day 1 then 450 mg for 13 days. This cohort (cohort 3) was given the option to receive an additional 450 mg dose on day 15 with a high fat (50%) breakfast.
# Full PK profiles were obtained on Days 1 and 14. For subjects in cohort 3 who participate in the additional procedures on Day 15, full PK profiles were obtained on Days 1, 14, and 15. An abbreviated PK profile could also be obtained for the highest dose cohort only on one additional day. The actual day of PK sampling coincided with the additional day of Holter monitoring for the highest dose cohort. Subjects returned on Day 21 and Day 28 for PK, safety, and biomarker assessments.
# [2] = system: rat model of renal ischemia/reperfusion; assay: Rat model of renal ischemia/reperfusion (acute kidney injury); assay type: in vivo; conditions: rats
# Procedure: Prevention of ischemic reperfusion injury: Studies were performed to test the effectiveness and the dose/exposure-response relationship of 10-nitro-9(E)-octadec-9-enoic acid in reducing acute kidney injury in a rat model of renal ischemia/reperfusion when administered prior to the insult. A well-established and reproducible rat model of contrast-induced nephropathy was not available. Because ischemic/reperfusion injury is a facet of contrast-induced nephropathy, it was considered a reasonable alternative. In this model, the renal arteries of the rat were clamped for 35 min, followed by reperfusion. Serum creatinine was measured daily for 72 hours. The animals were then sacrificed for tissue and terminal plasma. 10-nitro-9(E)-octadec-9-enoic acid was administered over 15 min intravenously at various doses at one hour prior to the injury. […]
# 10-nitro-9(E)-octadec-9-enoic acid (2.5, 12.5, and 25 mg/kg) was administered 1 hr prior to the ischemic event. Plasma samples were taken at 0, 24, 48, and 72 hr following the ischemic event, and serum creatinine levels were measured in batches using mass spectrometry to achieve precision in the results.
structure (smiles),measurement,setting,value
"CCCCCCCC/C(=C\CCCCCCCC(=O)O)[N+](=O)[O-] [CXA-10, 10-nitro-9(E)-octadec-9-enoic acid]",glomerulosclerosis: average scores and percent of glomerular damage (sclerosis),[1]; both doses (2.5 and 12.5 mg/kg p.o. QD),significantly reduced
same,"glomerular hypertrophy (glomerular area, mean of 50 glomeruli per kidney)",[1]; high dose 12.5 mg/kg p.o. QD,did not have an effect
same,tubulointerstitial lesions,[1]; high dose 12.5 mg/kg p.o. QD,only slightly
same,"glomerular hypertrophy (glomerular area, mean of 50 glomeruli per kidney)",[1]; low dose 2.5 mg/kg p.o. QD,reduced
same,tubulointerstitial lesions,[1]; low dose 2.5 mg/kg p.o. QD,improved
same,"Cholesterol concentrations, change from baseline",obese male subjects; 150 mg,trend to decrease from baseline
same,MCP-1 mean change from baseline compared to placebo,obese male subjects; 150 mg,significantly different compared to placebo
same,Triglycerides LS Mean Difference (CI),"obese male subjects; 150 mg versus placebo, Day 8",-45.4 mg/dL
same,MCP-1 LS Mean Difference (CI),"obese male subjects; 150 mg versus placebo, Day 14 (0-10 hr)","−228.5 (−387.2, −69.77) pg/mL"
same,Triglycerides LS Mean Difference (CI),"obese male subjects; 150 mg versus placebo, Day 15",-59.6 mg/dL
same,decrease of leptin concentrations from baseline,"obese male subjects; 150 mg, day 14, placebo increased 35%",21.5%
same,"IL-6 concentrations, change from baseline","obese male subjects; 150 mg, days 7 and 14",trend to decrease from baseline
same,Leptin % change from baseline,"obese male subjects; Cohort 2 150 mg (n = 10), Day 14",−21.5%
same,Leptin LS Mean Difference (CI) versus placebo,"obese male subjects; Cohort 2 150 mg versus placebo, Day 14","−56.5 (−140.5, 27.5) pg/mL"
same,"renal structural injury (periodic acid-Schiff staining, blinded scoring)",[2]; 12.5 mg/kg intravenously 1 hr prior to I/R injury,alleviation of injury; also recorded: preserved normal renal structure
same,serum creatinine following ischemia,"[2]; 12.5 mg/kg intravenously 1 hr prior to ischemic event, 24 hr, p<0.01 at 24 hr only",statistically significant decrease; also recorded: significantly lowered
